Drawing on US20240376084A1, “INHIBITORS OF ALPHA-HEMOLYSIN OF STAPHYLOCOCCUS AUREUS” (Helmholtz-Zentrum Fur Infektionsforschung GmbH, priority 2021, published 2024), this text covers EC50 and IC50 for 29 molecules.

For orientation: EC50 means the concentration needed to bring the measured effect to its halfway point. Read a low EC50 as higher potency in that assay. A word on the IC50: it is the concentration needed to halve the response being measured.

Molecules are shown by their SMILES.

For assay [1], the target named is hemolysin alpha from Staphylococcus aureus (Staphylococcus aureus, UniProt P09616). Kind of assay: cell-based.
Assay [2] addresses S. aureus Alpha hemolysin (Staphylococcus aureus, UniProt P09616). Kind of assay: cell-based. The settings on record: A549-LDH Assay activity.

Sequence of S. aureus Alpha hemolysin (P09616 27-319 limits assumed): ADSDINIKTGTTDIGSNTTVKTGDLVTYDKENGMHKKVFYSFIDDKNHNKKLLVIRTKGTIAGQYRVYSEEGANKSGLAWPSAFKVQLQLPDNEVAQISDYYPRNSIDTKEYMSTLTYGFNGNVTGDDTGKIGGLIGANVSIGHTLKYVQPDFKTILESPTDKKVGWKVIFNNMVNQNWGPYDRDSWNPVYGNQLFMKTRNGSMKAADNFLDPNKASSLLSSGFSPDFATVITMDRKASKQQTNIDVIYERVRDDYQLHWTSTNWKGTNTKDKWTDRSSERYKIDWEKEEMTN
Sequence of hemolysin alpha from Staphylococcus aureus (P09616 27-319 limits assumed): as above

As to `Cc1cc2[nH]c(=O)c(=O)[nH]c2cc1S(=O)(=O)Nc1ccc(OC(F)(F)F)c(Cl)c1` [Compound 324, N-[3-chloro-4-(trifluoromethoxy)phenyl]-7-methyl-2,3-dioxo-1,4-dihydroquinoxaline-6-sulfonamide], the EC50 in assay [1] and in assay [2] was 30 to 100 nM throughout.
On to `Cc1cc2[nH]c(=O)c(=O)[nH]c2cc1S(=O)(=O)Nc1cc(C)c(-c2cccc(N(C)C)c2)c(C)c1` [Compound 59, N-(3′-(dimethylamino)-2,6-dimethyl-[1,1′-biphenyl]-4-yl)-7-methyl-2,3-dioxo-1,2,3,4-tetrahydroquinoxaline-6-sulfonamide], for which the half-inhibitory concentration (IC50) in assay [1] was in the range of 30 to 100 nM. The same molecule yielded an EC50 in assay [2] of 100 to 1000 nM.
For `O=c1[nH]c2cc(F)c(S(=O)(=O)Nc3ccc(-c4ccncc4)c(Cl)c3)cc2[nH]c1=O` [Compound 150, N-(3-chloro-4-(pyridin-4-yl)phenyl)-7-fluoro-2,3-dioxo-1,2,3,4-tetrahydroquinoxaline-6-sulfonamide] the same measures were 100 to 1000 nM and 100 to 1000 nM.
For `O=c1[nH]c2cc(F)c(S(=O)(=O)Nc3ccc(-c4ccccc4)c(Cl)c3)cc2[nH]c1=O` [Compound 40, N-(2-chloro-[1,1′-biphenyl]-4-yl)-7-fluoro-2,3-dioxo-1,2,3,4-tetrahydroquinoxaline-6-sulfonamide] the same measures were 30 to 100 nM and 100 to 1000 nM.
For `Cc1cc2[nH]c(=O)c(=O)[nH]c2cc1S(=O)(=O)Nc1ccc(-c2ccccc2N(C)C)c(Cl)c1` [Compound 136, N-(2-chloro-2′-(dimethylamino)-[1,1′-biphenyl]-4-yl)-7-methyl-2,3-dioxo-1,2,3,4-tetrahydroquinoxaline-6-sulfonamide], in that order: 100 to 1000 nM and 100 to 1000 nM.
In assay [1], `O=c1[nH]c2cc(Cl)c(S(=O)(=O)Nc3ccc(OC(F)(F)F)cc3)cc2[nH]c1=O` [Compound 47, 7-chloro-2,3-dioxo-N-(4-(trifluoromethoxy)phenyl)-1,2,3,4-tetrahydroquinoxaline-6-sulfonamide] gave a half-inhibitory concentration (IC50) of 30 to 100 nM. The molecule further came in with an EC50 in assay [2] of 30 to 100 nM.
For `Cc1cc2[nH]c(=O)c(=O)[nH]c2cc1S(=O)(=O)Nc1ccc(Cl)cc1` [Compound 177, N-(4-chlorophenyl)-7-methyl-2,3-dioxo-1,2,3,4-tetrahydroquinoxaline-6-sulfonamide], the half-maximal inhibitory concentration (IC50) in assay [1] lay in the range of 100 to 1000 nM. Besides, the EC50 in assay [2] was 100 to 1000 nM.
As for `Cc1cc2[nH]c(=O)c(=O)[nH]c2cc1S(=O)(=O)Nc1ccc(-c2ccc3nccn3c2)c(Cl)c1` [Compound 328, N-(3-chloro-4-imidazo[1,2-a]pyridin-6-yl-phenyl)-7-methyl-2,3-dioxo-1,4-dihydroquinoxaline-6-sulfonamide], the EC50 in assay [1] and in assay [2] was 100 to 1000 nM throughout.
Molecule `Cc1ccc(-c2ccc(NS(=O)(=O)c3cc4[nH]c(=O)c(=O)[nH]c4cc3C)cc2Cl)s1` [Compound 52, N-(3-chloro-4-(5-methylthiophen-2-yl)phenyl)-7-methyl-2,3-dioxo-1,2,3,4-tetrahydroquinoxaline-6-sulfonamide] displayed a concentration for half-maximal inhibition (IC50) in assay [1] of 30 to 100 nM. The molecule further displayed a 50% effective concentration (EC50) in assay [2] of 100 to 1000 nM.
As to `Cc1cc2[nH]c(=O)c(=O)[nH]c2cc1S(=O)(=O)Nc1ccc(-n2ccnc2)cc1` [Compound 292, N-(4-imidazol-1-ylphenyl)-7-methyl-2,3-dioxo-1,4-dihydroquinoxaline-6-sulfonamide], the concentration for a half-maximal effect (EC50) was in the range of 1000 to 3500 nM in assay [1] and 1000 to 6000 nM in assay [2].
For `Cc1cc2[nH]c(=O)c(=O)[nH]c2cc1S(=O)(=O)Nc1ccc(C2=CCOCC2)cc1` [Compound 297, N-[4-(3,6-dihydro-2H-pyran-4-yl)phenyl]-7-methyl-2,3-dioxo-1,4-dihydroquinoxaline-6-sulfonamide] the same measures were 100 to 1000 nM and 100 to 1000 nM.
For `Cc1cc(NS(=O)(=O)c2cc3[nH]c(=O)c(=O)[nH]c3cc2C)ccc1OC(F)(F)F` [Compound 323, 7-methyl-N-[3-methyl-4-(trifluoromethoxy)phenyl]-2,3-dioxo-1,4-dihydroquinoxaline-6-sulfonamide] the same measures were 30 to 100 nM and less than 30 nM.
For the molecule `Cc1cc2[nH]c(=O)c(=O)[nH]c2cc1S(=O)(=O)Nc1ccc(-c2ccccc2)cc1` [Compound 61, N-([1,1′-biphenyl]-4-yl)-7-methyl-2,3-dioxo-1,2,3,4-tetrahydroquinoxaline-6-sulfonamide], the IC50 in assay [1] was less than 30 nM. The molecule also registered a 50% effective concentration (EC50) in assay [2] of 30 to 100 nM.
Turning to `Cc1cc2[nH]c(=O)c(=O)[nH]c2cc1S(=O)(=O)Nc1ccc(C2=CCCCC2)c(Br)c1` [Compound 299, N-[3-bromo-4-(cyclohexen-1-yl)phenyl]-7-methyl-2,3-dioxo-1,4-dihydroquinoxaline-6-sulfonamide], the concentration for a half-maximal effect (EC50) in assay [1] and in assay [2] was 30 to 100 nM each time.
Turning to `O=c1[nH]c2cc(Cl)c(S(=O)(=O)Nc3ccc(-c4ccncc4)c(Cl)c3)cc2[nH]c1=O` [Compound 94, 7-chloro-N-(3-chloro-4-(pyridin-4-yl)phenyl)-2,3-dioxo-1,2,3,4-tetrahydroquinoxaline-6-sulfonamide], the IC50 in assay [1] was in the range of 100 to 1000 nM. The same molecule gave an EC50 in assay [2] of 100 to 1000 nM.
Turning to `Cc1cc2[nH]c(=O)c(=O)[nH]c2cc1S(=O)(=O)Nc1ccc(-c2ccc3c(c2)N(C)CCO3)c(Cl)c1` [Compound 354, N-[3-chloro-4-(4-methyl-2,3-dihydro-1,4-benzoxazin-6-yl)phenyl]-7-methyl-2,3-dioxo-1,4-dihydroquinoxaline-6-sulfonamide], the concentration for a half-maximal effect (EC50) lay within 30 to 100 nM in assay [1] and 100 to 1000 nM in assay [2].
For the molecule `Cc1cc2ccc(-c3ccc(NS(=O)(=O)c4cc5[nH]c(=O)c(=O)[nH]c5cc4C)cc3C(F)(F)F)cc2[nH]1` [Compound 364, 7-methyl-N-[4-(2-methyl-1H-indol-6-yl)-3-(trifluoromethyl)phenyl]-2,3-dioxo-1,4-dihydroquinoxaline-6-sulfonamide], the half-maximal effective concentration (EC50) in assay [1] and in assay [2] was less than 30 nM throughout.
With `Cc1cc2[nH]c(=O)c(=O)[nH]c2cc1S(=O)(=O)Nc1ccc(-c2ccc3nc[nH]c3c2)c(Cl)c1` [Compound 359, N-[4-(3H-benzimidazol-5-yl)-3-chloro-phenyl]-7-methyl-2,3-dioxo-1,4-dihydroquinoxaline-6-sulfonamide], the results for the EC50 in assay [1] and in assay [2] were 100 to 1000 nM and 30 to 100 nM, respectively.
For `O=c1[nH]c2cc(OCC(F)(F)F)c(S(=O)(=O)Nc3ccc(OC(F)(F)F)cc3)cc2[nH]c1=O` [Compound 276, 2,3-dioxo-7-(2,2,2-trifluoroethoxy)-N-[4-(trifluoromethoxy)phenyl]-1,4-dihydroquinoxaline-6-sulfonamide] the same measures were 30 to 100 nM and less than 30 nM.
For `Cc1cc2[nH]c(=O)c(=O)[nH]c2cc1S(=O)(=O)Nc1ccc(I)c(C(F)(F)F)c1` [Compound 325, N-[4-iodo-3-(trifluoromethyl)phenyl]-7-methyl-2,3-dioxo-1,4-dihydroquinoxaline-6-sulfonamide] the same measures were 100 to 1000 nM and 1000 to 6000 nM.
For the molecule `Cc1cc2[nH]c(=O)c(=O)[nH]c2cc1S(=O)(=O)Nc1ccc(-n2ccnc2)c(Cl)c1` [Compound 285, N-(3-chloro-4-imidazol-1-yl-phenyl)-7-methyl-2,3-dioxo-1,4-dihydroquinoxaline-6-sulfonamide], the EC50 in assay [1] and in assay [2] was 100 to 1000 nM throughout.
As for `Cc1cc2[nH]c(=O)c(=O)[nH]c2cc1S(=O)(=O)Nc1ccc(N2CCCC2)cc1` [Compound 137, 7-methyl-2,3-dioxo-N-(4-(pyrrolidin-1-yl)phenyl)-1,2,3,4-tetrahydroquinoxaline-6-sulfonamide], in assay [1], the IC50 is 100 to 1000 nM. In assay [2], this molecule gave an EC50 of 30 to 100 nM.
For `O=c1[nH]c2cc(Cl)c(S(=O)(=O)Nc3ccc(C(F)(F)F)cc3)cc2[nH]c1=O` [Compound 93, 7-chloro-2,3-dioxo-N-(4-(trifluoromethyl)phenyl)-1,2,3,4-tetrahydroquinoxaline-6-sulfonamide] the same measures were 100 to 1000 nM and 100 to 1000 nM.
In the case of `Cc1cc2[nH]c(=O)c(=O)[nH]c2cc1S(=O)(=O)Nc1ccc(-c2cc(CO)ccc2F)c(Cl)c1` [Compound 282, N-[3-chloro-4-[2-fluoro-5-(hydroxymethyl)phenyl]phenyl]-7-methyl-2,3-dioxo-1,4-dihydroquinoxaline-6-sulfonamide], the EC50 in assay [1] was 30 to 100 nM; in assay [2], 100 to 1000 nM.
In assay [1], `COc1ccccc1-c1ccc(NS(=O)(=O)c2cc3[nH]c(=O)c(=O)[nH]c3cc2C)cc1Cl` [Compound 72, N-(2-chloro-2′-methoxy-[1,1′-biphenyl]-4-yl)-7-methyl-2,3-dioxo-1,2,3,4-tetrahydroquinoxaline-6-sulfonamide] displayed an IC50 of 100 to 1000 nM. In assay [2], the EC50 lay in the range of 100 to 1000 nM.
For `Cc1cc2[nH]c(=O)c(=O)[nH]c2cc1S(=O)(=O)Nc1ccc(-c2cccc(CO)c2)c(Cl)c1` [Compound 333, N-[3-chloro-4-[3-(hydroxymethyl)phenyl]phenyl]-7-methyl-2,3-dioxo-1,4-dihydroquinoxaline-6-sulfonamide], the half-maximal effective concentration (EC50) in assay [1] lay within 30 to 100 nM; in assay [2], 100 to 1000 nM.
In the case of `CC(C)c1cc2[nH]c(=O)c(=O)[nH]c2cc1S(=O)(=O)Nc1ccc(OC(F)(F)F)cc1` [Compound 31, 7-isopropyl-2,3-dioxo-N-(4-(trifluoromethoxy)phenyl)-1,2,3,4-tetrahydroquinoxaline-6-sulfonamide], the IC50 in assay [1] was less than 30 nM. Also, the concentration giving a half-maximal response (EC50) in assay [2] was less than 30 nM.
On to `Cc1cc2[nH]c(=O)c(=O)[nH]c2cc1S(=O)(=O)Nc1ccc(OC(F)(F)F)cc1` [Compound 28, 7-methyl-2,3-dioxo-N-(4-(trifluoromethoxy)phenyl)-1,2,3,4-tetrahydroquinoxaline-6-sulfonamide], for which, in assay [1], the IC50 is less than 30 nM. In addition, the EC50 in assay [2] was less than 30 nM.
In assay [1], `Cc1cc2[nH]c(=O)c(=O)[nH]c2cc1S(=O)(=O)Nc1ccc(-c2ccccc2C(F)(F)F)c(Cl)c1` [Compound 139, N-(2-chloro-2′-(trifluoromethyl)-[1,1′-biphenyl]-4-yl)-7-methyl-2,3-dioxo-1,2,3,4-tetrahydroquinoxaline-6-sulfonamide] gave an IC50 of 100 to 1000 nM. In addition, the EC50 in assay [2] was in the range of 1000 to 6000 nM.
